According to PubChem BioAssay AID220 (DTP/NCI, 2004):
Several values for one entry are separate records, joined by “and”; a condition that tells them apart may be missing. Equal entries are not always repeated. Results filed as inconclusive are left out.

Tested on: CD8F1 mice, subcutaneous mammary adenocarcinoma, T/C%
Assay: NCI In Vivo Anticancer Drug Screen. Data for tumor model Mammary Adenocarcinoma CD8F1 (subcutaneous) in CD8F1
Settings: higher = larger tumour
Procedure, shortened: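 Compound-treated versus vehicle-treated mice with transplantable tumors; survival or tumor size compared as T/C.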

[1] = endpoint: median tumor weight (est.), dose: 3.12 mg/kg/injection, schedule: Q07DX005 (ip), vehicle: saline with Tween-80
[2] = endpoint: median tumor weight (est.), dose: 6.25 mg/kg/injection, schedule: Q07DX005 (ip), vehicle: saline with Tween-80
[3] = endpoint: median tumor weight (est.), dose: 12.5 mg/kg/injection, schedule: Q07DX005 (ip), vehicle: saline with Tween-80

O=NN(CCCl)C(=O)NCCCl
T/C (endpoint: mean tumor weight (est.), dose: 7.5 mg/kg/injection, schedule: Q07DX003 (ip), vehicle: saline + alcohol): 58 % of control
T/C (endpoint: mean tumor weight (est.), dose: 12.5 mg/kg/injection, schedule: Q07DX003 (ip), vehicle: saline + alcohol): 46 % of control
T/C (endpoint: mean tumor weight (est.), dose: 15.0 mg/kg/injection, schedule: Q07DX003 (ip), vehicle: saline + alcohol): 34 % of control
T/C (endpoint: mean tumor weight, dose: 1.5 mg/kg/injection, schedule: Q01DX009 (ip), vehicle: saline): 52 % of control
T/C (endpoint: mean tumor weight, dose: 3.0 mg/kg/injection, schedule: Q01DX009 (ip), vehicle: saline): 54 % of control
T/C (endpoint: mean tumor weight, dose: 3.75 mg/kg/injection, schedule: Q07DX007 (ip), vehicle: saline + alcohol): 113 % of control
T/C (endpoint: mean tumor weight, dose: 6.25 mg/kg/injection, schedule: Q01DX009 (ip), vehicle: saline): 26 % of control and 29 % of control
T/C (endpoint: mean tumor weight, dose: 7.5 mg/kg/injection, schedule: Q07DX006 (ip), vehicle: saline + alcohol): 62 % of control
T/C (endpoint: mean tumor weight, dose: 7.5 mg/kg/injection, schedule: Q07DX007 (ip), vehicle: saline + alcohol): 77 % of control
T/C (endpoint: mean tumor weight, dose: 12.5 mg/kg/injection, schedule: Q07DX006 (ip), vehicle: saline + alcohol): 33 % of control
T/C (endpoint: mean tumor weight, dose: 12.5 mg/kg/injection, schedule: Q07DX006 (ip), vehicle: saline): 5 % of control
T/C (endpoint: mean tumor weight, dose: 15.0 mg/kg/injection, schedule: Q07DX006 (ip), vehicle: saline + alcohol): 4 % of control
T/C (endpoint: mean tumor weight, dose: 15.0 mg/kg/injection, schedule: Q07DX007 (ip), vehicle: saline + alcohol): 60 % of control
T/C (endpoint: median tumor weight (est.), dose: 1.5 mg/kg/injection, schedule: Q01DX005 (ip), vehicle: saline with Tween-80): 49 % of control
T/C (endpoint: median tumor weight (est.), dose: 2.0 mg/kg/injection, schedule: Q04DX005 (ip), vehicle: saline with Tween-80): 99 % of control
T/C (endpoint: median tumor weight (est.), dose: 2.0 mg/kg/injection, schedule: Q07DX005 (ip), vehicle: saline with Tween-80): 40 % of control and 56 % of control and 65 % of control
T/C (endpoint: median tumor weight (est.), dose: 3.0 mg/kg/injection, schedule: Q01DX005 (ip), vehicle: saline with Tween-80): 69 % of control
T/C (endpoint: median tumor weight (est.), dose: 4.0 mg/kg/injection, schedule: Q04DX005 (ip), vehicle: saline with Tween-80): 44 % of control
T/C (endpoint: median tumor weight (est.), dose: 6.0 mg/kg/injection, schedule: Q01DX005 (ip), vehicle: saline with Tween-80): 29 % of control
T/C (endpoint: median tumor weight (est.), dose: 8.0 mg/kg/injection, schedule: Q04DX005 (ip), vehicle: saline with Tween-80): 10 % of control
T/C (endpoint: median tumor weight (est.), dose: 8.0 mg/kg/injection, schedule: Q07DX005 (ip), vehicle: saline with Tween-80): 27 % of control and 35 % of control and 38 % of control
T/C (endpoint: median tumor weight (est.), dose: 12.0 mg/kg/injection, schedule: Q01DX005 (ip), vehicle: saline with Tween-80): 2 % of control
T/C (endpoint: median tumor weight (est.), dose: 16.0 mg/kg/injection, schedule: Q04DX005 (ip), vehicle: saline with Tween-80): 5 % of control
T/C (endpoint: median tumor weight (est.), dose: 16.0 mg/kg/injection, schedule: Q07DX005 (ip), vehicle: saline with Tween-80): 1 % of control and 2 % of control and 18 % of control
T/C (endpoint: median tumor weight change, dose: 7.81 mg/kg/injection, schedule: Q01DX001 (ip), vehicle: saline + alcohol): 70 % of control
T/C (endpoint: median tumor weight change, dose: 8.0 mg/kg/injection, schedule: Q01DX001 (ip), vehicle: saline + alcohol): 32 % of control
T/C (endpoint: median tumor weight change, dose: 15.62 mg/kg/injection, schedule: Q01DX001 (ip), vehicle: saline + alcohol): 40 % of control
T/C (endpoint: median tumor weight change, dose: 15.62 mg/kg/injection, schedule: Q01DX001 (ip), vehicle: saline with Tween-80): 55 % of control
T/C (endpoint: median tumor weight change, dose: 16.0 mg/kg/injection, schedule: Q01DX001 (ip), vehicle: saline + alcohol): 31 % of control
T/C (endpoint: median tumor weight change, dose: 31.0 mg/kg/injection, schedule: Q01DX001 (ip), vehicle: saline + alcohol): 23 % of control
T/C (endpoint: median tumor weight change, dose: 31.25 mg/kg/injection, schedule: Q01DX001 (ip), vehicle: saline + alcohol): 31 % of control
T/C (endpoint: median tumor weight change, dose: 31.25 mg/kg/injection, schedule: Q01DX001 (ip), vehicle: saline with Tween-80): 20 % of control
T/C (endpoint: median tumor weight change, dose: 62.0 mg/kg/injection, schedule: Q01DX001 (ip), vehicle: saline + alcohol): -31 % of control
T/C (endpoint: median tumor weight change, dose: 62.5 mg/kg/injection, schedule: Q01DX001 (ip), vehicle: saline + alcohol): 17 % of control
T/C (endpoint: median tumor weight change, dose: 125.0 mg/kg/injection, schedule: Q01DX001 (ip), vehicle: saline + alcohol): -39 % of control

COCC(O)Cn1ccnc1[N+](=O)[O-] (centres undefined)
T/C (endpoint: median tumor weight (est.), dose: 8.0 mg/kg/injection, schedule: Q07DX005 (ip), vehicle: Klucel (hydroxypropylcellulose) (HPC)): 101 % of control
T/C (endpoint: median tumor weight (est.), dose: 8.0 mg/kg/injection, schedule: Q07DX005 (ip), vehicle: saline): 183 % of control
T/C (endpoint: median tumor weight (est.), dose: 16.0 mg/kg/injection, schedule: Q07DX005 (ip), vehicle: Klucel (hydroxypropylcellulose) (HPC)): 124 % of control
T/C (endpoint: median tumor weight (est.), dose: 16.0 mg/kg/injection, schedule: Q07DX005 (ip), vehicle: saline): 256 % of control
T/C (endpoint: median tumor weight (est.), dose: 32.0 mg/kg/injection, schedule: Q07DX005 (ip), vehicle: saline): 256 % of control
T/C (endpoint: median tumor weight (est.), dose: 64.0 mg/kg/injection, schedule: Q07DX005 (ip), vehicle: Klucel (hydroxypropylcellulose) (HPC)): 74 % of control
T/C (endpoint: median tumor weight (est.), dose: 64.0 mg/kg/injection, schedule: Q07DX005 (ip), vehicle: saline): 249 % of control
T/C (endpoint: median tumor weight (est.), dose: 128.0 mg/kg/injection, schedule: Q07DX005 (ip), vehicle: Klucel (hydroxypropylcellulose) (HPC)): 88 % of control
T/C (endpoint: median tumor weight (est.), dose: 128.0 mg/kg/injection, schedule: Q07DX005 (ip), vehicle: saline): 488 % of control
T/C (endpoint: median tumor weight (est.), dose: 256.0 mg/kg/injection, schedule: Q07DX005 (ip), vehicle: Klucel (hydroxypropylcellulose) (HPC)): 121 % of control
T/C (endpoint: median tumor weight (est.), dose: 256.0 mg/kg/injection, schedule: Q07DX005 (ip), vehicle: saline): 108 % of control

CC[N+](CC)(CC)CC
T/C (endpoint: median tumor weight (est.), dose: 0.78 mg/kg/injection, schedule: Q07DX005 (ip), vehicle: saline with Tween-80): 96 % of control
T/C (endpoint: median tumor weight (est.), dose: 1.56 mg/kg/injection, schedule: Q07DX005 (ip), vehicle: saline with Tween-80): 71 % of control and 84 % of control
T/C [1]: 21 % of control and 38 % of control
T/C [2]: 10 % of control and 27 % of control
T/C (endpoint: median tumor weight change, dose: 5.0 mg/kg/injection, schedule: Q01DX001 (ip), vehicle: saline with Tween-80): 38 % of control
T/C (endpoint: median tumor weight change, dose: 10.0 mg/kg/injection, schedule: Q01DX001 (ip), vehicle: saline with Tween-80): 20 % of control
T/C (endpoint: median tumor weight change, dose: 12.0 mg/kg/injection, schedule: Q01DX001 (ip), vehicle: saline with Tween-80): 54 % of control and 61 % of control
T/C (endpoint: median tumor weight change, dose: 15.0 mg/kg/injection, schedule: Q01DX001 (ip), vehicle: saline with Tween-80): 86 % of control
T/C (endpoint: median tumor weight change, dose: 20.0 mg/kg/injection, schedule: Q01DX001 (ip), vehicle: saline with Tween-80): 22 % of control
T/C (endpoint: median tumor weight change, dose: 30.0 mg/kg/injection, schedule: Q01DX001 (ip), vehicle: saline with Tween-80): 15 % of control
T/C (endpoint: median tumor weight change, dose: 40.0 mg/kg/injection, schedule: Q01DX001 (ip), vehicle: saline with Tween-80): 8 % of control

NC(N)=NC(N)=Nc1ccc(-c2ccc(N=C(N)N=C(N)N)cc2)cc1
T/C [1]: 108 % of control
T/C [2]: 118 % of control
T/C [3]: 156 % of control

CC(=O)O[C@@H]1[C@@H](O)C2=C3[C@]4(C)[C@@H]1C(C)(C)C(=O)C[C@@H]4[C@]3(O)[C@H](OC(C)=O)[C@@]1(C[C@@H]1C)C2=O
T/C (endpoint: median tumor weight (est.), dose: 6.25 mg/kg/injection, schedule: Q07DX005 (ip), vehicle: distilled water + Tween-80): 98 % of control
T/C [2]: 112 % of control
T/C (endpoint: median tumor weight (est.), dose: 12.5 mg/kg/injection, schedule: Q07DX005 (ip), vehicle: distilled water + Tween-80): 151 % of control
T/C [3]: 117 % of control
T/C (endpoint: median tumor weight (est.), dose: 25.0 mg/kg/injection, schedule: Q07DX005 (ip), vehicle: distilled water + Tween-80): 87 % of control
T/C (endpoint: median tumor weight (est.), dose: 50.0 mg/kg/injection, schedule: Q07DX005 (ip), vehicle: distilled water + Tween-80): 94 % of control
T/C (endpoint: median tumor weight (est.), dose: 50.0 mg/kg/injection, schedule: Q07DX005 (ip), vehicle: saline with Tween-80): 72 % of control

CN(C)C(=O)SC1=C(c2c(Cl)cccc2Cl)C(=O)c2ccccc21
T/C (endpoint: median tumor weight change, dose: 125.0 mg/kg/injection, schedule: Q01DX001 (ip), vehicle: Klucel (hydroxypropylcellulose) (HPC)): 101 % of control and 115 % of control
T/C (endpoint: median tumor weight change, dose: 250.0 mg/kg/injection, schedule: Q01DX001 (ip), vehicle: Klucel (hydroxypropylcellulose) (HPC)): 98 % of control and 109 % of control
T/C (endpoint: median tumor weight change, dose: 500.0 mg/kg/injection, schedule: Q01DX001 (ip), vehicle: Klucel (hydroxypropylcellulose) (HPC)): 113 % of control
T/C (endpoint: median tumor weight change, dose: 1000.0 mg/kg/injection, schedule: Q01DX001 (ip), vehicle: Klucel (hydroxypropylcellulose) (HPC)): 74 % of control and 75 % of control
T/C (endpoint: median tumor weight change, dose: 2000.0 mg/kg/injection, schedule: Q01DX001 (ip), vehicle: Klucel (hydroxypropylcellulose) (HPC)): 22 % of control and 38 % of control

Nc1nc2ccc(NCc3ccc(C(=O)NC(CCC(=O)O)C(=O)O)cc3)cc2c(=O)[nH]1 (centres undefined)
T/C (endpoint: median tumor weight change, dose: 25.0 mg/kg/injection, schedule: Q01DX001 (ip), vehicle: saline with Tween-80): 115 % of control
T/C (endpoint: median tumor weight change, dose: 100.0 mg/kg/injection, schedule: Q01DX001 (ip), vehicle: saline with Tween-80): 68 % of control
